≈ marks a conversion by molar mass, not a printed value. Where “and” joins values, the source holds several entries; their conditions need not be identical. Equal values may be shown once.

Test systems include Candida krusei ATCC 6258; Pseudomonas aeruginosa 1; Escherichia coli; Pseudomonas aeruginosa 2; Staphylococcus aureus; Listeria monocytogenes; Salmonella typhimurium; Saccharomyces cerevisiae; Streptococcus pneumoniae; Pseudomonas aeruginosa; Escherichia coli B; Aerococcus viridans; Klebsiella pneumoniae; Clostridium perfringens; Candida albicans; Bacillus megaterium; Vibrio cholerae; Enterobacter cloacae; Acinetobacter baumannii; Escherichia coli UB1005; Escherichia coli K99; Escherichia coli K88; Methylobacterium sp.; Xanthomonas citri.

Assay in all cases: ≥ marks a high value that may be exact or a test limit, other limits are often not marked, values filed in µg/mL are converted to µM
Assay [1] concerns Pseudomonas aeruginosa ATCC 27853.
Assay [2] deals with Enterobacter cloacae ATCC 13047.
The subject of assay [3] is Staphylococcus aureus ATCC 29213.
The subject of assay [4] is Escherichia coli ATCC 25922.
The test system of assay [5] is Enterococcus faecalis ATCC 4028.
The subject of assay [6] is Staphylococcus epidermidis ATCC 12228.
The subject of assay [7] is Candida glabrata ATCC 90030.
Assay [8] concerns Candida albicans ATCC 90028.
Assay [9] deals with Staphylococcus aureus ATCC 25923.
The test system of assay [10] is Salmonella enterica subsp. enterica serovar Enteritidis.
Assay [11] concerns Staphylococcus haemolyticus.
The subject of assay [12] is Pseudomonas aeruginosa PAO1.
Assay [13] deals with Pseudomonas aeruginosa CICC 21625.
The subject of assay [14] is Salmonella enterica subsp. enterica serovar Typhimurium C77-31.
In assay [15] the test system is Salmonella enterica subsp. enterica serovar Typhimurium ATCC 14028.
Assay [16] relates to Pseudomonas aeruginosa CICC 21630.
Assay [17] relates to Salmonella enterica subsp. enterica serovar Pullorum C79-13.
In assay [18] the test system is Sinorhizobium meliloti USDA 1002.
Assay [19] deals with Agrobacterium tumefaciens GV3101.
The test system of assay [20] is Candida albicans ATCC 14053.
Assay [21] has as its system Micrococcus luteus ATCC 49732.
In assay [22] the test system is Escherichia coli ATCC 11775.
Assay [23] relates to Staphylococcus aureus ATCC 12600.

Consider `CC[C@H](C)[C@H](NC(=O)[C@H](CC(C)C)NC(=O)[C@H](CCCCN)NC(=O)[C@H](CCCCN)NC(=O)[C@@H](NC(=O)[C@H](CC(C)C)NC(=O)[C@H](CCCCN)NC(=O)[C@@H]1CCCN1C(=O)[C@@H](NC(=O)[C@H](CC(C)C)NC(=O)[C@H](CCCCN)NC(=O)[C@H](Cc1ccccc1)NC(=O)[C@@H](N)Cc1ccccc1)[C@@H](C)CC)C(C)C)C(=O)N[C@@H](CCCCN)C(=O)N[C@@H](C)C(=O)N[C@@H](Cc1ccccc1)C(=O)N[C@@H](CCCCN)C(N)=O` [FFKLIPKLVKKLIKAFK], for which the MIC was determined as 2.3 µM (≈ 4.74 µg/mL) in [1]; 4.7 µM (≈ 9.69 µg/mL) in assay [2]; 2.3 µM (≈ 4.74 µg/mL) in assay [3]; 4.7 µM (≈ 9.69 µg/mL) with Candida krusei ATCC 6258; 1.2 µM (≈ 2.47 µg/mL) in assay [4]; 1.2 µM (≈ 2.47 µg/mL) in assay [5]. In addition, the figures for the MIC in assay [6], in assay [7] and in assay [8] were 2.3 µM (≈ 4.74 µg/mL), 4.7 µM (≈ 9.69 µg/mL) and 4.7 µM (≈ 9.69 µg/mL), respectively.
As to `CC[C@H](C)[C@H](NC(=O)CN)C(=O)NCC(=O)N[C@@H](C)C(=O)N[C@H](C(=O)N[C@@H](CC(C)C)C(=O)N[C@@H](CCCCN)C(=O)N[C@@H](Cc1c[nH]c2ccccc12)C(=O)N[C@@H](CC(C)C)C(=O)N1CCC[C@H]1C(=O)N[C@@H](C)C(=O)N[C@@H](CC(C)C)C(=O)N[C@H](C(=O)N[C@@H](CCCCN)C(=O)N[C@@H](CCCN=C(N)N)C(=O)N[C@@H](CCCCN)C(=O)N[C@@H](CCCN=C(N)N)C(=O)N[C@@H](CCC(N)=O)C(=O)N[C@@H](CCC(N)=O)C(=O)O)[C@@H](C)CC)C(C)C` [GIGAVLKWLPALIKRKRQQ], the MIC is 2.3 µM (≈ 5 µg/mL) in assay [1]; 1.15 µM (≈ 2.5 µg/mL) with Pseudomonas aeruginosa 1; 0.405 µM (≈ 0.88 µg/mL) in the assay with Escherichia coli; 4.6 µM (≈ 10 µg/mL) against Pseudomonas aeruginosa 2; 0.115 µM and 0.163 µM with Staphylococcus aureus; 0.0575 µM (≈ 0.125 µg/mL) in [9]. This molecule came in with an MIC in assay [4] of 0.575 µM (≈ 1.25 µg/mL).
Take `CC[C@H](C)[C@H](NC(=O)[C@H](CC(C)C)NC(=O)[C@H](CO)NC(=O)[C@@H](NC(=O)[C@@H](NC(=O)[C@H](CC(C)C)NC(=O)CN)C(C)C)[C@@H](C)O)C(=O)N[C@@H](CCCCN)C(=O)NCC(=O)N[C@@H](C)C(=O)NCC(=O)N[C@@H](CCCCN)C(=O)N[C@@H](CC(C)C)C(=O)N[C@@H](CC(C)C)C(=O)NCC(=O)NCC(=O)N[C@@H](CC(C)C)C(=O)N[C@@H](Cc1ccccc1)C(=O)NCC(=O)N[C@@H](CO)C(=O)N[C@H](C(=O)N[C@H](C(=O)NCC(=O)NCC(=O)N[C@@H](CCC(N)=O)C(=O)N[C@@H](CO)C(=O)O)[C@@H](C)O)C(C)C` [GLVTSLIKGAGKLLGGLFGSVTGGQS]: the MIC in the assay on Listeria monocytogenes was 25 µM (≈ 60.4 µg/mL); in assay [10], 3.1 µM (≈ 7.5 µg/mL); against Salmonella typhimurium, 3.1 µM (≈ 7.5 µg/mL); against Saccharomyces cerevisiae, no less than 50 µM; in the assay with Streptococcus pneumoniae, 6.25 µM (≈ 15.1 µg/mL); in the assay with Staphylococcus aureus, 6.25 µM (≈ 15.1 µg/mL). Further, the MIC in assay [11] is no less than 50 µM; in the assay with Pseudomonas aeruginosa, 3.1 µM (≈ 7.5 µg/mL); with Escherichia coli B, 6.25 µM (≈ 15.1 µg/mL); against Aerococcus viridans it was 3.1 µM (≈ 7.5 µg/mL); in the assay on Klebsiella pneumoniae, 6.25 µM (≈ 15.1 µg/mL); against Clostridium perfringens, no less than 50 µM. Also, the MIC turned out to be 50 µM (≈ 121 µg/mL) against Candida albicans, 25 µM (≈ 60.4 µg/mL) in the assay with Bacillus megaterium, 25 µM (≈ 60.4 µg/mL) against Vibrio cholerae and 12.5 µM (≈ 30.2 µg/mL) against Enterobacter cloacae.
Take `CC[C@H](C)[C@H](N)C(=O)N[C@@H](CCCN=C(N)N)C(=O)N1CCC[C@H]1C(=O)N[C@H](C(=O)N[C@H](C(=O)N[C@@H](CCCN=C(N)N)C(=O)N1CCC[C@H]1C(=O)N[C@H](C(=O)N[C@H](C(=O)N[C@@H](CCCN=C(N)N)C(=O)N1CCC[C@H]1C(=O)N[C@H](C(=O)N[C@H](C(=O)N[C@@H](CCCN=C(N)N)C(=O)N1CCC[C@H]1C(=O)N[C@H](C(N)=O)[C@@H](C)CC)[C@@H](C)CC)[C@@H](C)CC)[C@@H](C)CC)[C@@H](C)CC)[C@@H](C)CC)[C@@H](C)CC` [IRPIIRPIIRPIIRPI]: the MIC in assay [1] is greater than 64 µM; against Escherichia coli, 16 µM (≈ 31 µg/mL); in [12], greater than 64 µM; in the assay with Acinetobacter baumannii, 8 µM (≈ 15.5 µg/mL); against Pseudomonas aeruginosa, greater than 64 µM; in [13] it was no less than 64 µM. In addition, the MIC against Escherichia coli UB1005 is 16 µM (≈ 31 µg/mL); against Klebsiella pneumoniae it was 32 µM (≈ 61.9 µg/mL); in assay [14], 16 µM (≈ 31 µg/mL); in the assay with Escherichia coli K99, 8 µM (≈ 15.5 µg/mL); in [15], 16 µM (≈ 31 µg/mL); in [16], no less than 64 µM. Besides, the results for the MIC (in [4]; against Escherichia coli K88; in assay [17]) were 16 µM (≈ 31 µg/mL), 4 µM (≈ 7.74 µg/mL) and 16 µM (≈ 31 µg/mL), respectively.
As to `CC[C@H](C)[C@H](NC(=O)[C@H](C)NC(=O)[C@H](CCCCN)NC(=O)[C@@H](NC(=O)[C@H](CC(C)C)NC(=O)[C@H](C)NC(=O)[C@H](CCCCN)NC(=O)[C@H](Cc1ccccc1)NC(=O)[C@@H](NC(=O)[C@H](C)NC(=O)[C@H](CCCCN)NC(=O)CNC(=O)[C@@H](NC(=O)[C@H](CCCCN)NC(=O)[C@@H](NC(=O)[C@@H](NC(=O)[C@H](Cc1ccccc1)NC(=O)[C@H](CCCCN)NC(=O)[C@H](CC(C)C)NC(=O)[C@H](CC(C)C)NC(=O)[C@@H](N)CCCCN)C(C)C)[C@@H](C)O)C(C)C)[C@@H](C)CC)[C@@H](C)CC)C(=O)O` [KLLKFVTKVGKAIFKALIKAI], the MIC (in assay [18]; in the assay with Methylobacterium sp.; in [19]; against Xanthomonas citri) was 3 µM (≈ 6.99 µg/mL) in each case.
As to `CC(C)[C@H](NC(=O)[C@H](C)NC(=O)[C@H](C)NC(=O)CNC(=O)[C@@H]1CCCN1)C(=O)N[C@@H](Cc1ccccc1)C(=O)N[C@@H](CCCCN)C(=O)O` [PGAAVFK], the MIC in assay [20] was no less than 36 µM; in assay [21] it was no less than 36 µM; in [22], 12 µM (≈ 8.27 µg/mL); in assay [23], 12 µM (≈ 8.27 µg/mL).

The MIC is the lowest concentration that inhibits growth of the organism. Higher therefore signals weaker potency.

For the origin of these results see DBAASP.
